Non-standard residues stand in square brackets, D forms with d. Residues, ends and D or L forms follow the SMILES beside them. *: point of attachment. Nle = CCCC[C@H](N)C(=O)O; Cbz = O=C(OCc1ccccc1)*
How the values were obtained:
[1] = test system: rat hypercalcemia induced by PTHrp(1-34); test: Rat hypercalcemia induced by PTHrp(1-34), oral administration; type: in vivo, male Wistar rats; conditions: 4 hours before PTHrp(1-34) 5 nmole/kg i.v., blood 1 hour after PTHrp, n = 5
Protocol: To male Wistar rats aged 5 weeks (70 - 90 g, 5 animals in each group), 40 mg/kg body weight of the compounds listed in Table 2 and 40 and 80 mg/kg body weight of the compounds listed in Table 3 were orally administered. After 4 hours, 5 nmole/kg of PTHrp(1-34) was intravenously injected into the animals.
One hour after the administration of PTHrp(1-34), a blood sample was collected from each rat and the blood calcium concentration was determined by the octocresolphthalein complexone method.

[2] = test system: secondary hyperparathyroidism; test: Secondary hyperparathyroidism, calcium-deficient diet model; type: in vivo, male Wistar rats; conditions: 40 mg/kg oral after 5 days calcium-deficient diet; blood 5 hours after administration
Protocol: In a calcium-deficient diet model system of rats, parathyroid hormone is released in order to maintain the blood calcium concentration within a normal range. In other words, the parathyroid hormone induces bone resorption so that the blood calcium concentration is maintained within a normal range.
Taking advantage of the above-mentioned model system, male Wistar rats aged 5 weeks (70 - 90 g, 5 animals in each group) were fed on calcium-deficient diet for 5 days. After fasting overnight, 40 mg/kg body weight of the compounds listed in Table 1 were orally administered to the rats. 5 hours after the administration of the drugs, the blood calcium concentration of each animal was determined by the same method as the one employed in Example 1.

[3] = test system: rat hypercalcemia induced by PTHrp(1-34); test: Rat hypercalcemia induced by PTHrp(1-34), intraperitoneal administration; type: in vivo, male Wistar rats; conditions: 10 mg/kg intraperitoneal; for Ca conc. ± standard error: blood 1 hour after PTHrp, n = 5
Protocol: To male Wistar rats aged 5 weeks (70 - 90 g, 5 animals in each group), 10 mg/kg body weight of Compound 1 was intraperitoneally administered 0.5, 1, 2 and 4 hours before the administration of PTHrp(1-34). PTHrp(1-34) was intravenously injected into the animals at the level of 5 nmole/kg. One hour after the administration of PTHrp(1-34), a blood sample was collected from each animal and the blood calcium concentration was determined by the same method as the one employed in Example 1.

[4] = Acute toxicity, intraperitoneal; type: in vivo; conditions: 2 g/kg intraperitoneally, rats

Structure (SMILES): CCCC[C@@H](C=O)NC(=O)[C@H](CC(C)C)NC(=O)[C@H](CC(C)C)NC(=O)OCc1ccccc1 [Compound 23, N-Benzyloxycarbonyl-leucyl-leucyl-norleucinal] (Cbz-Leu-Leu-[Nle]-aldehyde)
- Ca conc. ± standard error ([1]; 40 mg/kg oral): 9.53 ± 0.08 mg/dL
- Ca conc. ± standard error ([1]; 80 mg/kg oral): 9.28 ± 0.66 mg/dL

Structure (SMILES): CCCCC(C=O)NC(=O)C(CC(C)C)NC(=O)OCc1ccc(Cl)cc1 (centres unmarked) [Compound 8]
- blood calcium concentration (result in words) [2]: significantly reduced

Structure (SMILES): CCCCC(C=O)NC(=O)C(CC(C)C)NC(=O)OC(C)(C)C (centres unmarked) [Compound 6]
- blood calcium concentration (result in words) [2]: significantly reduced

Structure (SMILES): CCCCC(C=O)NC(=O)C(CC(C)C)NC(=O)CCCc1ccccc1 (centres unmarked) [Compound 2]
- blood calcium concentration (result in words) [2]: significantly reduced

Structure (SMILES): CCCC[C@@H](C=O)NC(=O)[C@H](CC(C)C)NC(=O)[C@H](CC(C)C)NC(C)=O [Compound 22, N-Acetyl-leucyl-leucyl-norleucinal] (Ac-Leu-Leu-[Nle]-aldehyde)
- Ca conc. ± standard error ([1]; 40 mg/kg oral): 9.49 ± 0.20 mg/dL
- Ca conc. ± standard error ([1]; 80 mg/kg oral): 9.52 ± 0.11 mg/dL

Structure (SMILES): CSCC[C@@H](C=O)NC(=O)[C@H](CC(C)C)NC(=O)[C@H](CC(C)C)NC(C)=O [Compound 21, N-Acetyl-leucyl-leucyl-methioninal] (Ac-Leu-Leu-Met-aldehyde)
- Ca conc. ± standard error ([1]; 40 mg/kg oral): 9.78 ± 0.08 mg/dL
- Ca conc. ± standard error ([1]; 80 mg/kg oral): 9.61 ± 0.13 mg/dL

Structure (SMILES): CCCC[C@@H](C=O)NC(=O)[C@H](CC(C)C)NC(=O)OCc1ccccc1 [Compound 1, N-benzyloxycarbonyl-leucyl-norleucinal]
- suppression of the increase in the blood calcium concentration (result in words) ([3]; 0.5 to 4 hours before PTHrp(1-34)): continuously effected significant suppression
- Ca conc. ± standard error ([3]; 0.5 hr before PTHrp(1-34)): 11.74 ± 0.07 mg/dL
- Ca conc. ± standard error ([3]; 1 hr before PTHrp(1-34)): 11.28 ± 0.07 mg/dL
- Ca conc. ± standard error ([3]; 2 hr before PTHrp(1-34)): 11.56 ± 0.09 mg/dL
- Ca conc. ± standard error ([3]; 4 hr before PTHrp(1-34)): 11.91 ± 0.09 mg/dL
- acute toxicity (general conditions, mortality) [4]: neither any change in the general conditions of the animals nor any mortal case was observed

Structure (SMILES): CCCCC(C=O)NC(=O)C(CC(C)C)NC(=O)OCC(Cl)(Cl)Cl (centres unmarked) [Compound 11]
- blood calcium concentration (result in words) [2]: significantly reduced

Structure (SMILES): CC(C)CC(NC(=O)C1OC1C(=O)O)C(=O)NCCCCNC(=N)N [Compound E-64, L-trans-epoxysuccinyl-L-leucineamide-(e-guanide)-butane, reference compound]
- Ca conc. ± standard error ([1]; 40 mg/kg oral): 9.69 ± 0.21 mg/dL
- Ca conc. ± standard error ([1]; 80 mg/kg oral): 9.61 ± 0.12 mg/dL

Structure (SMILES): CCCCC(C=O)NC(=O)C(CC(C)C)NP(=S)(c1ccccc1)c1ccccc1 (centres unmarked) [Compound 15]
- blood calcium concentration (result in words) [2]: significantly reduced

Structure (SMILES): CCCCC(C=O)NC(=O)C(CC(C)C)NC(=O)OCc1ccc(OC)cc1 (centres unmarked) [Compound 9]
- blood calcium concentration (result in words) [2]: significantly reduced
